According to BigSolDB 2.1:

COc1ccc2[nH]cc(CCNC(C)=O)c2c1
solubility (mole fraction)
Settings	278.15 K	283.15 K	288.15 K	293.15 K	298.15 K	303.15 K	308.15 K	313.15 K	318.15 K	323.15 K
in 2-ethoxyethanol	0.0643	0.0729	0.0809	0.0919	0.103	0.113	0.126	0.138	0.152	0.168
in 2-methoxyethanol	0.0729	0.0819	0.0921	0.103	0.115	0.129	0.142	0.159	0.173	0.191
in DMF	0.177	0.191	0.205	0.221	0.235	0.251	0.267	0.285	0.302	0.321
